# Calls of active or inactive are those of the source. The calls are words filed in the database; no cut-off is given here.
# Key:
# MV4-11 [1] = assay: Induction of apoptosis in human MV4-11 cells assessed as necrotic cells at 10 nM incubated for 24 hrs by flow cytometry (reference value: 0.25%); type: functional
# MOLM-13 [2] = assay: Induction of cell cycle arrest in human MOLM-13 cells assessed as accumulation at S phase at 1 nM incubated for 24 hrs by flow cytometry (reference value: 16.28%); type: functional
# MV4-11 [3] = assay: Antiproliferative activity against human MV4-11 cells incubated for 72 hrs by Cell Counting Kit-8 assay; type: functional, cell-based; conditions: MV4-11, 72 h
# MV4-11 [4] = assay: Induction of cell cycle arrest in human MV4-11 cells assessed as accumulation at G2/M phase at 1 nM incubated for 24 hrs by flow cytometry (reference value: 7.29%); type: functional
# MOLM-13 [5] = assay: Antiproliferative activity against human quizartinib-resistant MOLM-13 cells at 111 nM incubated for 72 hrs by CCK8 assay relative to control; type: functional
# MV4-11 [6] = assay: Induction of cell cycle arrest in human MV4-11 cells assessed as accumulation at S phase at 10 nM incubated for 24 hrs by flow cytometry (reference value: 16.31%); type: functional
# MV4-11 [7] = assay: Induction of cell cycle arrest in human MV4-11 cells assessed as accumulation at G1 phase at 1 nM incubated for 24 hrs by flow cytometry (reference value: 64.73%); type: functional
# MOLM-13 [8] = assay: Antiproliferative activity against human quizartinib-resistant MOLM-13 cells at 4 nM incubated for 72 hrs by CCK8 assay relative to control; type: functional
# MV4-11 [9] = assay: Induction of cell cycle arrest in human MV4-11 cells assessed as accumulation at G2/M phase at 100 nM incubated for 24 hrs by flow cytometry (reference value: 7.29%); type: functional
# MV4-11 [10] = assay: Induction of apoptosis in human MV4-11 cells assessed as viable cells at 100 nM incubated for 24 hrs by flow cytometry (reference value: 98.86%); type: functional; conditions: read-out: Activity
# MOLM-13 [11] = assay: Antiproliferative activity against human sunitinib-resistant MOLM-13 cells at 4 nM incubated for 72 hrs by CCK8 assay relative to control; type: functional
# MV4-11 [12] = assay: Induction of apoptosis in human MV4-11 cells assessed as early apoptotic cells at 1 nM incubated for 24 hrs by flow cytometry (reference value: 0.31%); type: functional
# MOLM-13 [13] = assay: Antiproliferative activity against human MOLM-13 cells incubated for 72 hrs by Cell Counting Kit-8 assay; type: functional, cell-based; conditions: MOLM-13, 72 h
# [14] = Toxicity in mouse xenografted with human MOLM-13 cells assessed as effect on lung at 10 to 40 mg/kg, po administered for 20 days by hematoxylin and eosin staining assay; type: organism-based; conditions: in vivo, 480 h, dose 10-40 mg/kg, time 20 day
# [15] = AUC (0 to last) in Sprague-Dawley rat at 10 mg/kg, po; type: ADME, organism-based; design: route oral, time 0 - last, dose 10 mg/kg; conditions: in vivo
# MOLM-13 [16] = assay: Antitumor activity against human MOLM-13 cells xenografted in po dosed mouse assessed as tumor growth inhibition administered for 20 days measured once every 2 days; type: functional, organism-based; conditions: time 20.0 day
# HT-29 = assay: Antiproliferative activity against human HT-29 cells measured after 72 hrs by CCK8 assay; type: functional, cell-based; conditions: HT-29, 72 h
# MOLM-13 [17] = assay: Induction of cell cycle arrest in human MOLM-13 cells assessed as accumulation at G2/M phase at 10 nM incubated for 24 hrs by flow cytometry (reference value: […]); type: functional
# [18] = molecular target: Receptor-type tyrosine-protein kinase FLT3 (Homo sapiens) (UniProt P36888); assay: Inhibition of FLT3 in human MOLM-13 cells assessed as reduction in autophosphorylation at tyr589/591 residue incubated for 2 hrs by Western blot analysis; type: cell-based
# Homo sapiens = organism: Homo sapiens; assay: Binding affinity to FLT3 ITD F691L mutant (unknown origin) at 1000 nM relative to control
# [19] = Toxicity in mouse xenografted with human MV4-11 cells assessed as effect on heart at 2.5 to 10 mg/kg, po administered for 16 days by hematoxylin and eosin staining based assay; type: organism-based; conditions: in vivo, 384 h, dose 2.5-10 mg/kg, time 16 day
# [20] = MRT (0 to last) in Sprague-Dawley rat at 1 mg/kg, iv; type: ADME, organism-based; conditions: in vivo
# [21] = molecular target: Receptor-type tyrosine-protein kinase FLT3 (Homo sapiens) (UniProt P36888); assay: Inhibition of FLT3 in human MV4-11 cells assessed as reduction in ERK phosphorylation at 10 uM incubated for 2 hrs by Western blot analysis; type: cell-based
# MOLM-13 [22] = assay: Induction of cell cycle arrest in human MOLM-13 cells assessed as accumulation at G2/M phase at 100 nM incubated for 24 hrs by flow cytometry (reference value: […]); type: functional
# [23] = Toxicity in mouse xenografted with human MV4-11 cells assessed as effect on lung at 2.5 to 10 mg/kg, po administered for 16 days by hematoxylin and eosin staining assay; type: organism-based; conditions: in vivo, 384 h, dose 2.5-10 mg/kg, time 16 day
# [24] = molecular target: Mast/stem cell growth factor receptor Kit (Homo sapiens, UniProt P10721); assay: Inhibition of c-KIT (unknown origin) incubated for 30 mins in presence of ATP by mobility shift assay
# Chain of Mast/stem cell growth factor receptor Kit (P10721 whole entry): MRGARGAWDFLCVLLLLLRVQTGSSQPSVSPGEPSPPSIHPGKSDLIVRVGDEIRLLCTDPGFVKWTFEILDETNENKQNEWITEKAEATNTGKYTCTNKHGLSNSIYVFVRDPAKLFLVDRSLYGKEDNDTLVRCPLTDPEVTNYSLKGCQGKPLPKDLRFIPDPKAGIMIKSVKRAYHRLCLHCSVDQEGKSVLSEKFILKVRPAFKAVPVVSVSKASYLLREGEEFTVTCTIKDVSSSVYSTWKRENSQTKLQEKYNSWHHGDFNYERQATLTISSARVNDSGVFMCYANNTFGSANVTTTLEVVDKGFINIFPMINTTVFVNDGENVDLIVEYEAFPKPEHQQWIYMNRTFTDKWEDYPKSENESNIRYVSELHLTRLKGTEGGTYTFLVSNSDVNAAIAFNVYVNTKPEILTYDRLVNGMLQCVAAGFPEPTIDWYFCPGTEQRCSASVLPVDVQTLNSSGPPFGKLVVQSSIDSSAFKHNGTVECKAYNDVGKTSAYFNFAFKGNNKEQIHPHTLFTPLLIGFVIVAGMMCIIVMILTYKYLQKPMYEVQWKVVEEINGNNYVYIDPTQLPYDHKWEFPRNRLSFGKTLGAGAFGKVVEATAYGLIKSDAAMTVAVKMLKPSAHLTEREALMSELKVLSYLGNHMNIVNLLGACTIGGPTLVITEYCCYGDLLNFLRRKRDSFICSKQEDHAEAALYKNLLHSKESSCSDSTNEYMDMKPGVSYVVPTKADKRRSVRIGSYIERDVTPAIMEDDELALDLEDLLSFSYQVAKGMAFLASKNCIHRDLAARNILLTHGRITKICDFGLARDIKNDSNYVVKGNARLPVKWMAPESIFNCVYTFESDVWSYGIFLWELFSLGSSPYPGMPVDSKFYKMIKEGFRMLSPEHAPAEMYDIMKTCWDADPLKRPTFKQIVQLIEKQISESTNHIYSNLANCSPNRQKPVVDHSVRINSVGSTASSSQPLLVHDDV
# [25] = Half life in Sprague-Dawley rat at 10 mg/kg, po; type: ADME, organism-based; conditions: in vivo
# [26] = Toxicity in mouse xenografted with human MOLM-13 cells assessed as effect on heart at 10 to 40 mg/kg, po administered for 20 days by hematoxylin and eosin staining assay; type: organism-based; conditions: in vivo, 480 h, dose 10-40 mg/kg, time 20 day
# MOLM-13 [27] = assay: Induction of cell cycle arrest in human MOLM-13 cells assessed as accumulation at G2/M phase at 1 nM incubated for 24 hrs by flow cytometry (reference value: […]); type: functional
# HepG2 = assay: Antiproliferative activity against human HepG2 cells measured after 72 hrs by CCK8 assay; type: functional, cell-based; conditions: HepG2, 72 h
# KG-1 = assay: Antiproliferative activity against human KG1 cells measured after 72 hrs by CCK8 assay; type: functional, cell-based; conditions: KG-1, 72 h
# [28] = test system: Receptor-type tyrosine-protein kinase FLT3 (Homo sapiens), P36888 [R834Q]; assay: Binding affinity to FLT3 R834Q mutant (unknown origin) at 1000 nM relative to control
# [29] = Oral bioavailability in Sprague-Dawley rat at 10 mg/kg; type: ADME, organism-based; conditions: in vivo
# [30] = test system: Receptor-type tyrosine-protein kinase FLT3 (Homo sapiens), P36888 [D835Y]; assay: Binding affinity to FLT3 D835Y mutant (unknown origin) at 1000 nM relative to control
# HL-60 = assay: Antiproliferative activity against human HL-60 cells measured after 72 hrs by CCK8 assay; type: functional, cell-based; conditions: HL-60, 72 h
# [31] = molecular target: Receptor-type tyrosine-protein kinase FLT3 (Homo sapiens) (UniProt P36888); assay: Inhibition of FLT3 in human MOLM-13 cells assessed as reduction in ERK phosphorylation incubated for 2 hrs by Western blot analysis; type: cell-based
# [32] = test system: Receptor-type tyrosine-protein kinase FLT3 (Homo sapiens), P36888 [K663Q]; assay: Binding affinity to FLT3 K663Q mutant (unknown origin) at 1000 nM relative to control
# [33] = Cmax in Sprague-Dawley rat at 10 mg/kg, po; type: ADME, organism-based; design: route oral, dose 10 mg/kg; conditions: in vivo
# [34] = molecular target: Receptor-type tyrosine-protein kinase FLT3 (Homo sapiens) (UniProt P36888); assay: Binding affinity to FLT3 (unknown origin) at 1000 nM relative to control
# [35] = test system: Receptor-type tyrosine-protein kinase FLT3 (Homo sapiens), P36888 [UNDEFINED MUTATION]; assay: Binding affinity to FLT3 ITD mutant (unknown origin) at 1000 nM relative to control
structure (smiles),measurement,setting,value
CCN(CC)CCNC(=O)c1c(C)[nH]c(/C=C2\C(=O)Nc3ccc(F)cc32)c1C [SUNITINIB],Activity,MV4-11 [1],1.22%
same,Activity,MOLM-13 [2],16.42%
same,IC50,MV4-11 [3],31.5 nM
same,Activity,MV4-11 [4],5.86%
same,Activity,MOLM-13 [5],0.5%
same,Activity,MV4-11 [6],2.69%
same,Activity,MV4-11 [7],66.78%
same,Activity,MOLM-13 [8],-0.6%
same,Activity,MV4-11 [9],2.68%
same,viability at 0.1 µM,MV4-11 [10],80.1%
same,Activity,MOLM-13 [11],0.9%
same,Activity,MV4-11 [12],0.29%
same,IC50,MOLM-13 [13],69.6 nM
Cc1c(NC(=O)CCN2CCCC2)c[nH]c1/C=C1\C(=O)Nc2ccc(F)cc21,Activity,[14],Non-Toxic
same,AUC(0-t),[15],21200 ng·h/mL
same,Activity,MV4-11 [1],1.93%
same,Activity,MOLM-13 [2],15.09%
same,Activity,MOLM-13 [16],Dose-Dependent Effect
same,IC50,HT-29,1540 nM
same,IC50,MV4-11 [3],23.5 nM
same,Activity,MV4-11 [4],3.98%
same,Activity,MOLM-13 [17],2.32%
same,Activity,[18],Dose-Dependent Effect
same,Activity,MOLM-13 [5],2.9%
same,Activity,MV4-11 [6],2.41%
same,Activity,Homo sapiens,Active
same,Activity,[19],Non-Toxic
same,MRT last,[20],4 h
same,Activity,[21],Active
same,Activity,MOLM-13 [22],0.9%
same,Activity,[23],Non-Toxic
same,Activity,MV4-11 [7],69.79%
same,IC50,[24],> 1000 nM
same,half-life,[25],6.1 h
same,Activity,[26],Non-Toxic
same,Activity,MOLM-13 [27],7.13%
same,IC50,HepG2,1690 nM
same,IC50,KG-1,1100 nM
same,Activity,[28],Active
same,bioavailability,[29],73.6%
same,Activity,[30],Active
same,IC50,HL-60,4720 nM
same,Activity,MOLM-13 [8],3.3%
same,Activity,MV4-11 [9],2.51%
same,viability at 0.1 µM,MV4-11 [10],71.7%
same,Activity,[31],Dose-Dependent Effect
same,Activity,[32],Active
same,Activity,MOLM-13 [11],3.3%
same,Activity,MV4-11 [12],0.39%
same,Cmax,[33],1880 ng/mL
same,Activity,[34],Active
same,Activity,[35],Active
same,IC50,MOLM-13 [13],35.5 nM

# Source: ChEMBL document CHEMBL4823252 (J Med Chem, 2021)
